The source of these data is patent publication US5747521A (priority 1992, dated 1998).

Like-named read-outs stand apart in the source and are kept apart here.

Series [1] is described as follows: in vivo. The arrangement: species or system male SD-rats. Particulars: rat, po. As for the experimental part: A solution of a drug was administered through the mouths of a group of 8 mature male SD-rats (weight 130±20 g) performing a fast for 24 hours. […] Capacity which causes 50% bleeding (UD50) was calculated according to the Ritchfield and Wilcoxon method (J. Pahrmacol., 69, 99, 1949) with bleeding more than 1 mm in diameter as positivity.

Series [2] deals with carrageenan induced hind-paw edema. In words: Anti-inflammatory activity test (carrageenan induced hind-paw edema method, Winter). Format: in vivo, male rats. Particulars: for A rate of inhibition: 100 mg/kg p.o., 1% carrageenan one hour after dosing, edema measured 3 hours and 5 hours thereafter, significance (p.v.) 0.01; for edema inhibition effect / anti-inflammatory action: conclusion in words from Table 2. As for the experimental part:
The volume of legs was measured before a solution of a drug was administered to a group of 8 mature male rats (weight 170±20 g) and 0.1 ml /rat of 1% carrageenan physiological saline solution was injected subcutaneously into the sole of hind of leg of rats one hour after the oral administration and edema thereby caused was measured 3 hours and 5 hours thereafter. In this way, a rate of edema formation and a rate of inhibition were calculated.

The subject of series [3] is number of stretchings (anti-writhing). In words: Analgesic activity test (anti-writhing method by Whittle). The format is in vivo, male ICR-mice. The settings on record: for ED50: Mus musculus, 1 h, read-out: ED50 Oral administration; for analgesic activity / analgesic action: conclusion in words from Table 3. On the procedure: After the lapse of 60 minutes, the number of stretchings in the course of 10 minutes was measured as an index to a algesic sense.

Series [4] in a line: in vivo. Particulars: mouse.
Setting [5] is: ip, read-out: LD50 Abdominal administration.
The mark [6] stands for this setting: oral, single dose, fasted mice, mortality up to 72 hours, read-out: LD50 Oral administration.
[7] abbreviates: oral, stretchings counted in 10 minutes, 60 minutes after dosing.

With `COc1ccc2c(c1)c(CC(=O)O)c(C)n2C(=O)C=Cc1ccccc1` [Cinmetacin, N-cinnamoyl-2-methyl-5-methoxy-3-indoleacetic acid, reference compound], the TD50 at 4 h in series [1] is 18 mg/kg. Also, in series [2], the “A rate of inhibition” value is 65%. Further, the ED50 in series [3] (po) is 36 mg/kg.
For `COc1ccc2c(c1)c(CC(=O)OCC=CCO)c(C)n2C(=O)C=Cc1ccccc1` [Compound 1, 0-(4-hydroxy-2-butene)-N-cinnamoyl-5-methoxy-2-methyl-3-indoleacetate], the LD50 at 72 h in series [4] (setting [5]) is 520 mg/kg. Also, in series [4] (setting [6]), the LD50 at 72 h was 2000 mg/kg. Moreover, the TD50 at 4 h in series [1] amounted to 100 mg/kg. Besides, in series [2], the “A rate of inhibition” value came out at 57% and the “edema inhibition effect / anti-inflammatory action” value is “almost similar to the widely known cinmetacin”. For the same compound, the ED50 in series [3] (setting [7]) stood at 70 mg/kg. The “analgesic activity / analgesic action” value in series [3] was “significant analgesic action”.
Turning to `COc1ccc2c(c1)c(CC(=O)OC(C)C(C)O)c(C)n2C(=O)C=Cc1ccccc1` (stereo not shown) [Compound 2, 0-(3-hydroxy-2-buthanyl)-cinnamoyl-5-methoxy-2-methyl-3-indoleacetate], in series [4] (setting [5]), the LD50 at 72 h is 570 mg/kg. Further, in series [4] (setting [6]), the LD50 at 72 h was 4200 mg/kg. This compound also displayed a TD50 at 4 h in series [1] of 175 mg/kg. In series [2], the “A rate of inhibition” value amounted to 52% and the “edema inhibition effect / anti-inflammatory action” value is reported as “almost similar to the widely known cinmetacin”. The ED50 in series [3] (setting [7]) was 31 mg/kg. Moreover, the “analgesic activity / analgesic action” value in series [3] is listed as “analgesic activity equal to cinmetacin”.
In the case of `COc1ccc2c(c1)c(CC(=O)OCC1CCCCO1)c(C)n2C(=O)C=Cc1ccccc1` (stereo not shown) [Compound 3, 0-(2-tetrahydropyranilmethyl)-N-cinnamoyl-5-methoxy-2methyl-3-indoleacetate], the LD50 at 72 h in series [4] (setting [5]) worked out at 1150 mg/kg. Further, in series [4] (setting [6]), the LD50 at 72 h is 6000 mg/kg. The compound also displayed a TD50 at 4 h in series [1] of 230 mg/kg. Moreover, in series [2], the “A rate of inhibition” value is reported as 43% and the “edema inhibition effect / anti-inflammatory action” value is “significant anti-inflammatory action”. Besides, the ED50 in series [3] (setting [7]) stood at 95 mg/kg. Moreover, in series [3], the “analgesic activity / analgesic action” value is “significant analgesic action”.
In the case of `CC1=C(CC(=O)O)c2cc(F)ccc2/C1=C\c1ccc([S+](C)[O-])cc1` (stereo not shown) [Sulindac, reference compound], the LD50 at 72 h came to 235 mg/kg in series [4] (ip, into the abdominal cavity, single dose, fasted mice, mortality up to 72 hours, read-out: LD50 Abdominal administration) and 980 mg/kg in series [4] (setting [6]). In series [1], the TD50 at 4 h was found to be 14 mg/kg. Further, the ED50 in series [3] (po) was determined as 60 mg/kg.
